# Legend:
# Type in all cases: in vivo
# [1] = system: Monocotyledonous and dicotyledonous weed; assay: Post-emergence test experiment, weed control effect (Table 2); design: key to weed control effect, Setaria viridis (level) / weed control effect, Rorippa indica (level) / weed control effect, Abutilon theophrasti (level) / weed control effect, Echinochloa crus-galli (level) / weed control effect, Digitaria sanguinalis (level): Level 10: completely dead; Level 9: above 90% growth inhibition rate; Level 8: above 80% growth inhibition rate; Level 7: above 70% growth inhibition rate; Level 6: above 60% growth inhibition rate; Level 5: above 50% growth inhibition rate; Level 4: above 30% growth inhibition rate; Level 3: above 20% growth inhibition rate; Level 2: above 10% growth inhibition rate; Level 1: above 1-10% growth inhibition rate; Level 0: no effect; conditions: 3 weeks after spraying, greenhouse
# Procedure, shortened: (§1)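 Weed and crop seeds (wheat, corn, rice, soybean, cotton, oilseed, millet, sorghum) grown in soil in greenhouse; sprayed at 2-3 leaf stage, 2-3 weeks after sowing, with compound in acetone/Tween 80/water. Effects assessed after 3 weeks further greenhouse culture.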
# [2] = system: main crop (wheat, corn, rice, soybean, cotton, oilseed, millet and sorghum); assay: Post-emergence test experiment, main crops (Table 2); design: key: Level 10: completely dead; Level 9: above 90% growth inhibition rate; Level 8: above 80% growth inhibition rate; Level 7: above 70% growth inhibition rate; Level 6: above 60% growth inhibition rate; Level 5: above 50% growth inhibition rate; Level 4: above 30% growth inhibition rate; Level 3: above 20% growth inhibition rate; Level 2: above 10% growth inhibition rate; Level 1: above 1-10% growth inhibition rate; Level 0: no effect; conditions: 3 weeks after spraying, greenhouse
# Procedure, shortened: as §1
# [3] = system: Echinochloa crus-galli; assay: Weed control effect evaluation in transplanted rice field; design: key: Level 10: completely dead; Level 9: above 90% growth inhibition rate; Level 8: above 80% growth inhibition rate; Level 7: above 70% growth inhibition rate; Level 6: above 60% growth inhibition rate; Level 5: above 50% growth inhibition rate; Level 4: above 30% growth inhibition rate; Level 3: above 20% growth inhibition rate; Level 2: above 10% growth inhibition rate; Level 1: above 1-10% growth inhibition rate; Level 0: no effect; conditions: transplanted rice field pot test, 14 days after treatment
# Description: (§2) Rice field soil was loaded into a 1/1,000,000 ha pot. The seeds of Echinochloa, Scirpus juncoides, Bidens tripartite and Sagittaria trifolia were sowed and gently covered with soil, then left to stand still in greenhouse in the state of 0.5-1 cm of water storage. The tuber of Sagittaria trifolia was planted in the next day or 2 days later. It was kept at 3-4 cm of water storage thereafter. The weeds were treated by dripping the WP or SC water diluents prepared according to the common preparation method of the compounds of the present invention with pipette homogeneously to achieve specified effective amount when Echinochloa, Scirpus juncoides and Bidens tripartite reached 0.5 leaf stage and Sagittaria trifolia reached the time point of primary leaf stage.
# (§3) The fertility condition of Echinochloa, Scirpus juncoides, Bidens tripartite and Sagittaria trifolia 14 days after the treatment of the compound of the invention and the fertility condition of rice 21 days after the treatment of the compound of the invention respectively with the naked eye.
# (§4) The seeds of Echinochloa crus-galli, Scirpus juncoides and Monochoria vaginalis were collected from Heilongjing and Jiangsu Province of China.
# [4] = system: Monochoria vaginalis; assay: as above; design: key: Level 10: completely dead; Level 9: above 90% growth inhibition rate; Level 8: above 80% growth inhibition rate; Level 7: above 70% growth inhibition rate; Level 6: above 60% growth inhibition rate; Level 5: above 50% growth inhibition rate; Level 4: above 30% growth inhibition rate; Level 3: above 20% growth inhibition rate; Level 2: above 10% growth inhibition rate; Level 1: above 1-10% growth inhibition rate; Level 0: no effect; conditions: transplanted rice field pot test, 14 days after treatment
# Description: as §2, §3, §4
# [5] = system: Scirpus juncoides; assay: as above; design: key: Level 10: completely dead; Level 9: above 90% growth inhibition rate; Level 8: above 80% growth inhibition rate; Level 7: above 70% growth inhibition rate; Level 6: above 60% growth inhibition rate; Level 5: above 50% growth inhibition rate; Level 4: above 30% growth inhibition rate; Level 3: above 20% growth inhibition rate; Level 2: above 10% growth inhibition rate; Level 1: above 1-10% growth inhibition rate; Level 0: no effect; conditions: transplanted rice field pot test, 14 days after treatment
# Description: as §2, §3, §4
# [6] = system: Rice; assay: Transplanted rice safety evaluation; design: key: Level 10: completely dead; Level 9: above 90% growth inhibition rate; Level 8: above 80% growth inhibition rate; Level 7: above 70% growth inhibition rate; Level 6: above 60% growth inhibition rate; Level 5: above 50% growth inhibition rate; Level 4: above 30% growth inhibition rate; Level 3: above 20% growth inhibition rate; Level 2: above 10% growth inhibition rate; Level 1: above 1-10% growth inhibition rate; Level 0: no effect; conditions: transplanted 3 leaf stage japonica rice, 21 days after treatment
# Description: In addition, the rice field soil that loaded into the 1/1,000,000 ha pot was leveled to keep water storage at 3-4 cm depth. The 3 leaf stage rice (japonica rice) was transplanted at 3 cm of transplanting depth the next day. The compound of the present invention was treated by the same way after 5 days of transplantation. The fertility condition of Echinochloa, Scirpus juncoides, Bidens tripartite and Sagittaria trifolia 14 days after the treatment of the compound of the invention and the fertility condition of rice 21 days after the treatment of the compound of the invention respectively with the naked eye.
structure (smiles),measurement,setting,value
C#CCOCc1c(S(C)(=O)=O)ccc(C(=O)c2c(C)nn(C)c2OC(=O)c2cn(C)nc2C)c1C [Compound 76],"weed control effect, Abutilon theophrasti (level)",[1]; 30 g/ha,7 (Level 7: above 70% growth inhibition rate)
same,"weed control effect, Bidens pilosa (level)",[1]; 30 g/ha,7 (Level 7: above 70% growth inhibition rate)
same,"weed control effect, Digitaria sanguinalis (level)",[1]; 30 g/ha,7 (Level 7: above 70% growth inhibition rate)
same,"weed control effect, Echinochloa crus-galli (level)",[1]; 30 g/ha,10
same,"weed control effect, Rorippa indica (level)",[1]; 30 g/ha,10
same,"weed control effect, Setaria viridis (level)",[1]; 30 g/ha,10
same,"effect on crop, corn (level)",[2]; 30 g/ha,1 (Level 1: above 1-10% growth inhibition rate)
same,"effect on crop, rice (level)",[2]; 30 g/ha,3 (Level 3: above 20% growth inhibition rate)
same,"effect on crop, wheat (level)",[2]; 30 g/ha,0
same,"Weed control effect, Echinochloa crus-galli (activity level)",[3]; application rate 60 g/ha,10
same,"Weed control effect, Monochoria vaginalis (activity level)",[4]; application rate 60 g/ha,10
same,"Weed control effect, Scirpus juncoides (activity level)",[5]; application rate 60 g/ha,10
same,"Rice (safety, activity level)",[6]; application rate 60 g/ha,0
COCC(C)OCc1c(S(C)(=O)=O)ccc(C(=O)c2c(C)nn(C)c2OC(=O)c2cn(C)nc2C)c1Cl (stereo not shown) [Compound 36],"weed control effect, Abutilon theophrasti (level)",[1]; 60 g/ha,10
same,"weed control effect, Bidens pilosa (level)",[1]; 60 g/ha,8 (Level 8: above 80% growth inhibition rate)
same,"weed control effect, Digitaria sanguinalis (level)",[1]; 60 g/ha,10
same,"weed control effect, Echinochloa crus-galli (level)",[1]; 60 g/ha,10
same,"weed control effect, Rorippa indica (level)",[1]; 60 g/ha,10
same,"weed control effect, Setaria viridis (level)",[1]; 60 g/ha,7 (Level 7: above 70% growth inhibition rate)
same,"effect on crop, corn (level)",[2]; 60 g/ha,0
same,"effect on crop, rice (level)",[2]; 60 g/ha,1 (Level 1: above 1-10% growth inhibition rate)
same,"effect on crop, wheat (level)",[2]; 60 g/ha,0
same,"Weed control effect, Echinochloa crus-galli (activity level)",[3]; application rate 60 g/ha,9 (Level 9: above 90% growth inhibition rate)
same,"Weed control effect, Monochoria vaginalis (activity level)",[4]; application rate 60 g/ha,10
same,"Weed control effect, Scirpus juncoides (activity level)",[5]; application rate 60 g/ha,10
same,"Rice (safety, activity level)",[6]; application rate 60 g/ha,0
C#CCOCc1c(S(C)(=O)=O)ccc(C(=O)c2cnn(C(C)C)c2OC(=O)c2cn(C)nc2C)c1Cl [Compound 100],"weed control effect, Abutilon theophrasti (level)",[1]; 30 g/ha,7 (Level 7: above 70% growth inhibition rate)
same,"weed control effect, Bidens pilosa (level)",[1]; 30 g/ha,7 (Level 7: above 70% growth inhibition rate)
same,"weed control effect, Digitaria sanguinalis (level)",[1]; 30 g/ha,7 (Level 7: above 70% growth inhibition rate)
same,"weed control effect, Echinochloa crus-galli (level)",[1]; 30 g/ha,10
same,"weed control effect, Rorippa indica (level)",[1]; 30 g/ha,10
same,"weed control effect, Setaria viridis (level)",[1]; 30 g/ha,10
same,"effect on crop, corn (level)",[2]; 30 g/ha,1 (Level 1: above 1-10% growth inhibition rate)
same,"effect on crop, rice (level)",[2]; 30 g/ha,5 (Level 5: above 50% growth inhibition rate)
same,"effect on crop, wheat (level)",[2]; 30 g/ha,0
same,"Weed control effect, Echinochloa crus-galli (activity level)",[3]; application rate 60 g/ha,10
same,"Weed control effect, Monochoria vaginalis (activity level)",[4]; application rate 60 g/ha,8 (Level 8: above 80% growth inhibition rate)
same,"Weed control effect, Scirpus juncoides (activity level)",[5]; application rate 60 g/ha,10
same,"Rice (safety, activity level)",[6]; application rate 60 g/ha,0
C#CCOCc1c(S(C)(=O)=O)ccc(C(=O)c2c(CC)nn(CC)c2OC(=O)c2c(Cl)c(CC)nn2C)c1Cl [Compound 107],"weed control effect, Abutilon theophrasti (level)",[1]; 60 g/ha,10
same,"weed control effect, Bidens pilosa (level)",[1]; 60 g/ha,8 (Level 8: above 80% growth inhibition rate)
same,"weed control effect, Digitaria sanguinalis (level)",[1]; 60 g/ha,8 (Level 8: above 80% growth inhibition rate)
same,"weed control effect, Echinochloa crus-galli (level)",[1]; 60 g/ha,10
same,"weed control effect, Rorippa indica (level)",[1]; 60 g/ha,10
same,"weed control effect, Setaria viridis (level)",[1]; 60 g/ha,10
same,"effect on crop, corn (level)",[2]; 60 g/ha,0
same,"effect on crop, rice (level)",[2]; 60 g/ha,7 (Level 7: above 70% growth inhibition rate)
same,"effect on crop, wheat (level)",[2]; 60 g/ha,0
same,"Weed control effect, Echinochloa crus-galli (activity level)",[3]; application rate 60 g/ha,9 (Level 9: above 90% growth inhibition rate)
same,"Weed control effect, Monochoria vaginalis (activity level)",[4]; application rate 60 g/ha,10
same,"Weed control effect, Scirpus juncoides (activity level)",[5]; application rate 60 g/ha,10
same,"Rice (safety, activity level)",[6]; application rate 60 g/ha,10
CCOc1c(C(=O)Oc2c(C(=O)c3ccc(S(C)(=O)=O)c(Cn4ccc(C)n4)c3Cl)cnn2C)cnn1C [Compound 24],"weed control effect, Abutilon theophrasti (level)",[1]; 120 g/ha,6 (Level 6: above 60% growth inhibition rate)
same,"weed control effect, Bidens pilosa (level)",[1]; 120 g/ha,6 (Level 6: above 60% growth inhibition rate)
same,"weed control effect, Digitaria sanguinalis (level)",[1]; 120 g/ha,1 (Level 1: above 1-10% growth inhibition rate)
same,"weed control effect, Echinochloa crus-galli (level)",[1]; 120 g/ha,9 (Level 9: above 90% growth inhibition rate)
same,"weed control effect, Rorippa indica (level)",[1]; 120 g/ha,4 (Level 4: above 30% growth inhibition rate)
same,"weed control effect, Setaria viridis (level)",[1]; 120 g/ha,2 (Level 2: above 10% growth inhibition rate)
same,"effect on crop, corn (level)",[2]; 120 g/ha,0
same,"effect on crop, rice (level)",[2]; 120 g/ha,0
same,"effect on crop, wheat (level)",[2]; 120 g/ha,0
same,"Weed control effect, Echinochloa crus-galli (activity level)",[3]; application rate 60 g/ha,10
same,"Weed control effect, Monochoria vaginalis (activity level)",[4]; application rate 60 g/ha,9 (Level 9: above 90% growth inhibition rate)
same,"Weed control effect, Scirpus juncoides (activity level)",[5]; application rate 60 g/ha,10
same,"Rice (safety, activity level)",[6]; application rate 60 g/ha,1 (Level 1: above 1-10% growth inhibition rate)
Cc1ccn(Cc2c(S(C)(=O)=O)ccc(C(=O)c3cnn(C)c3OC(=O)c3cn(C)nc3C)c2Cl)n1 [Compound 06],"weed control effect, Abutilon theophrasti (level)",[1]; 120 g/ha,7 (Level 7: above 70% growth inhibition rate)
same,"weed control effect, Bidens pilosa (level)",[1]; 120 g/ha,9 (Level 9: above 90% growth inhibition rate)
same,"weed control effect, Digitaria sanguinalis (level)",[1]; 120 g/ha,2 (Level 2: above 10% growth inhibition rate)
same,"weed control effect, Echinochloa crus-galli (level)",[1]; 120 g/ha,10
same,"weed control effect, Rorippa indica (level)",[1]; 120 g/ha,10
same,"weed control effect, Setaria viridis (level)",[1]; 120 g/ha,6 (Level 6: above 60% growth inhibition rate)
same,"effect on crop, corn (level)",[2]; 120 g/ha,0
same,"effect on crop, rice (level)",[2]; 120 g/ha,1 (Level 1: above 1-10% growth inhibition rate)
same,"effect on crop, wheat (level)",[2]; 120 g/ha,0
same,"Weed control effect, Echinochloa crus-galli (activity level)",[3]; application rate 500 g/ha,10
same,"Weed control effect, Monochoria vaginalis (activity level)",[4]; application rate 500 g/ha,10
same,"Weed control effect, Scirpus juncoides (activity level)",[5]; application rate 500 g/ha,10
same,"Rice (safety, activity level)",[6]; application rate 500 g/ha,1 (Level 1: above 1-10% growth inhibition rate)
Cc1nn(C)cc1C(=O)Oc1c(C(=O)c2ccc(S(C)(=O)=O)c(COCC(F)F)c2Cl)cnn1C [Compound 40],"weed control effect, Abutilon theophrasti (level)",[1]; 30 g/ha,7 (Level 7: above 70% growth inhibition rate)
same,"weed control effect, Bidens pilosa (level)",[1]; 30 g/ha,7 (Level 7: above 70% growth inhibition rate)
same,"weed control effect, Digitaria sanguinalis (level)",[1]; 30 g/ha,10
same,"weed control effect, Echinochloa crus-galli (level)",[1]; 30 g/ha,10
same,"weed control effect, Rorippa indica (level)",[1]; 30 g/ha,10
same,"weed control effect, Setaria viridis (level)",[1]; 30 g/ha,9 (Level 9: above 90% growth inhibition rate)
same,"effect on crop, corn (level)",[2]; 30 g/ha,0
same,"effect on crop, rice (level)",[2]; 30 g/ha,5 (Level 5: above 50% growth inhibition rate)
same,"effect on crop, wheat (level)",[2]; 30 g/ha,0
same,"Weed control effect, Echinochloa crus-galli (activity level)",[3]; application rate 60 g/ha,10
same,"Weed control effect, Monochoria vaginalis (activity level)",[4]; application rate 60 g/ha,9 (Level 9: above 90% growth inhibition rate)
same,"Weed control effect, Scirpus juncoides (activity level)",[5]; application rate 60 g/ha,9 (Level 9: above 90% growth inhibition rate)
same,"Rice (safety, activity level)",[6]; application rate 60 g/ha,0

# — US10556888B2, “Pyrazole compounds or salts thereof, preparation methods therefor, herbicidal compositions and use thereof” (QINGDAO KINGAGROOT CHEMICAL COMPOUNDS CO., LTD, priority 2015, dated 2020)
